Here are results for 27 molecules from US12466821B2 (Novartis AG, priority 2018, dated 2025).

Assay [1] concerns Luciferase-encoding HCMV, AD169 strain. As to the kind of experiment: CMV Luciferase assay (cellular herpesvirus replication). As to conditions: Human betaherpesvirus 5, AD169, read-out: CMV-Luc Cellular EC50. Type of assay: cell-based. The method, boiled down: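 Reporter HCMV AD169 with luciferase driven by late pp28 promoter, so signal requires viral DNA replication; NN-NHDF fibroblasts in 2% FBS medium, compound (0.0159–50 or 0.00318–10 μM, 0.5% DMSO) added 1 h before infection at MOI 1. Luminescence read 72 hpi; EC50 from 4-parameter fit of control-normalized %.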

Assay [2] addresses human HSV DNA polymerase UL30 (Human herpesvirus 1 (strain 17) (HHV-1) (Human herpes simplex virus 1), UniProt P04293). As to the kind of experiment: HSV polymerase biochemical assay (molecular beacon-based). The method, boiled down: (§1)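 Full-length wild-type N-terminal MBP-fusion polymerases from sf9 cells were used at 100 pM (CMV) or 625 pM (HSV) in Tris pH 7.5, 10 mM MgCl2, and preincubated with inhibitor for 30 min at RT. Reactions with 1.25 uM each dNTP, 200 nM primer and 100 nM molecular beacon ran 60 min (CMV) or 20 min (HSV) at RT. Fluorescence was read at 480/535 nm and IC50 derived.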

Assay [3] addresses human CMV DNA polymerase UL54 (Human cytomegalovirus (strain AD169) (HHV-5) (Human herpesvirus 5), UniProt P08546). As to the kind of experiment: CMV polymerase biochemical assay (molecular beacon-based). In short, it runs like this:
as §1

The term EC50 denotes the concentration giving half of the maximal effect. As a reminder, the IC50 is the concentration needed to halve the response being measured. High values mean weaker potency, low ones greater potency. Take `CN(CCN1CCn2c(c(C3CC3)cc(C(=O)NCc3ccc(Cl)cc3)c2=O)C1=O)S(C)(=O)=O` [Example 128, N-(4-chlorobenzyl)-9-cyclopropyl-2-(2-(N-methylmethylsulfonamido)ethyl)-1,6-dioxo-1,3,4,6-tetrahydro-2H-pyrido[1,2-a]pyrazine-7-carboxamide]: in assay [1], the EC50 stood at 2380 nM. The IC50 in assay [2] turned out to be 2560 nM; in assay [3] it was 153 nM.
For `N#Cc1ccc(CNC(=O)c2ccc3n(c2=O)CCN(CC2(S(=O)(=O)N4CC(F)(F)C4)CC2)C3=O)cc1` [Example 84-1, N-(4-cyanobenzyl)-2-((1-((3,3-difluoroazetidin-1-yl)sulfonyl)cyclopropyl)methyl)-1,6-dioxo-2,3,4,6-tetrahydro-1H-pyrido[1,2-a]pyrazine-7-carboxamide], in that order: 69.6 nM, 102 nM and 3.9 nM.
For `COCC1(S(=O)(=O)C2(CN3CCn4c(ccc(C(=O)NCc5ccc(C#N)cc5)c4=O)C3=O)CC2)CC1` [Example 15], the EC50 in assay [1] was determined as 30.2 nM. The IC50 in assay [2] amounted to 26 nM; in assay [3] it was 0.7 nM.
Take `CS(=O)(=O)N(CCN1CCn2c(ccc(C(=O)NCc3ccc(Cl)cc3)c2=O)C1=O)C1CC1` [Example 115, N-(4-chlorobenzyl)-2-(2-(N-cyclopropylmethylsulfonamido)ethyl)-1,6-dioxo-2,3,4,6-tetrahydro-1H-pyrido[1,2-a]pyrazine-7-carboxamide]: in assay [1], the EC50 was determined as 15000 nM. The figures for the IC50 in assay [2] and in assay [3] were 13600 nM and 747 nM, respectively.
For `N#Cc1ccc(CNC(=O)c2ccc3n(c2=O)CCN(CC2(S(=O)(=O)C4(C(F)F)CC4)CC2)C3=O)cc1` [Example 99-1], in that order: 43.9 nM, 49.4 nM and 1 nM.
The corresponding values for `C[C@H](CCO)S(=O)(=O)C1(CN2CCn3c(ccc(C(=O)NCc4ccc(C#N)cc4)c3=O)C2=O)CC1` (single isomer, unassigned) [Example 9, N-(4-cyanobenzyl)-2-((1-((4-hydroxybutan-2-yl)sulfonyl)cyclopropyl)methyl)-1,6-dioxo-2,3,4,6-tetrahydro-1H-pyrido[1,2-a]pyrazine-7-carboxamide] are 167 nM, 73.8 nM and 1.7 nM.
The corresponding values for `O=C(NCc1ccc(Cl)cc1)c1ccc2n(c1=O)CCN(CC1(N3CCCS3(=O)=O)CC1)C2=O` [Example 70, N-(4-chlorobenzyl)-2-((1-(1,1-dioxidoisothiazolidin-2-yl)cyclopropyl)methyl)-1,6-dioxo-2,3,4,6-tetrahydro-1H-pyrido[1,2-a]pyrazine-7-carboxamide] are 40.1 nM, 28.1 nM and 1.4 nM.
For `C[C@H](CCO)S(=O)(=O)C1(CN2CCn3c(ccc(C(=O)NCc4ccc(Cl)cc4)c3=O)C2=O)CC1` (single isomer, unassigned) [Example 6, N-(4-chlorobenzyl)-2-((1-((4-hydroxybutan-2-yl)sulfonyl)cyclopropyl)methyl)-1,6-dioxo-2,3,4,6-tetrahydro-1H-pyrido[1,2-a]pyrazine-7-carboxamide], in assay [1], the EC50 turned out to be 92.8 nM. Besides, the IC50 in assay [2] stood at 54.8 nM; in assay [3], 2.4 nM.
For `CC(C)(C(=O)O)S(=O)(=O)C1(CN2CCn3c(ccc(C(=O)NCc4ccc(Cl)cc4)c3=O)C2=O)CC1` [Example 175, 2-((1-((7-((4-chlorobenzyl)carbamoyl)-1,6-dioxo-1,3,4,6-tetrahydro-2H-pyrido[1,2-a]pyrazin-2-yl)methyl)cyclopropyl)sulfonyl)-2-methylpropanoic acid], in that order: 6050 nM, 24.4 nM and 0.8 nM.
The corresponding values for `CC1(CS(=O)(=O)C2(CN3CCn4c(ccc(C(=O)NCc5ccc(C#N)c(F)c5)c4=O)C3=O)CC2)CC1` [Example 109, N-(4-cyano-3-fluorobenzyl)-2-((1-(((1-methylcyclopropyl)methyl)sulfonyl)cyclopropyl)methyl)-1,6-dioxo-1,3,4,6-tetrahydro-2H-pyrido[1,2-a]pyrazine-7-carboxamide] are 112 nM, 121 nM and 3.2 nM.
For `CN(CCN1CCn2c(ccc(C(=O)NCc3ccc(Cl)cc3)c2=O)C1=O)C(=O)OC(C)(C)C` [Example 54, tert-butyl (2-(7-((4-chlorobenzyl)carbamoyl)-1,6-dioxo-3,4-dihydro-1H-pyrido[1,2-a]pyrazin-2(6H)-yl)ethyl)(methyl)carbamate], in that order: 4340 nM, 1930 nM and 292 nM.
On to `N#Cc1ccc(CNC(=O)c2ccc3n(c2=O)CCN(CC2(S(=O)(=O)C4(C(F)(F)F)CC4)CC2)C3=O)cc1` [Example 97-1], for which the EC50 in assay [1] is 222 nM. In addition, the IC50 is 122 nM in assay [2] and 5 nM in assay [3].
For `C[S@+]([O-])C1(CN2CCn3c(ccc(C(=O)NCc4ccc(Cl)cc4)c3=O)C2=O)CC1` (single isomer, unassigned) [Example 67-3, N-(4-chlorobenzyl)-2-((1-(methylsulfinyl)cyclopropyl)methyl)-1,6-dioxo-2,3,4,6-tetrahydro-1H-pyrido[1,2-a]pyrazine-7-carboxamide], in that order: 7250 nM, 13100 nM and 292 nM.
For `CC(C)S(=O)(=O)C1(CN2CCn3c(ccc(C(=O)NCc4ccc(C#N)cc4)c3=O)C2=O)CC1` [Example 32], in that order: 52 nM, 49.5 nM and 1.6 nM.
The corresponding values for `CC(C)(CO)S(=O)(=O)C1(CN2CCn3c(ccc(C(=O)NCc4ccc(Cl)nc4)c3=O)C2=O)CC1` [Example 182] are 48.3 nM, 38.6 nM and 2.7 nM.
Take `O=C(NCc1ccc(F)cc1)c1ccc2n(c1=O)CCN(CC1(S(=O)(=O)C3CC3)CC1)C2=O` [Example 3-2]: the EC50 in assay [1] is 84.8 nM. In addition, the figures for the IC50 in assay [2] and in assay [3] were 78.7 nM and 3 nM, respectively.
For `CN(CCN1CCn2c(c(CCCO)cc(C(=O)NCc3ccc(Cl)cc3)c2=O)C1=O)S(C)(=O)=O` [Example 157, N-(4-chlorobenzyl)-9-(3-hydroxypropyl)-2-(2-(N-methylmethylsulfonamido)ethyl)-1,6-dioxo-1,3,4,6-tetrahydro-2H-pyrido[1,2-a]pyrazine-7-carboxamide], in that order: 7720 nM, 1800 nM and 223 nM.
For `CS(=O)(=O)CCCN1CCn2c(c(CO)cc(C(=O)NCc3ccc(Cl)cc3)c2=O)C1=O` [Example 139], in that order: 50000 nM, 3580 nM and 989 nM.
The corresponding values for `N#Cc1ccc(CNC(=O)c2ccc3n(c2=O)CCN(CCS(=O)(=O)C2CC2)C3=O)cc1F` [Example 195] are 2610 nM, 649 nM and 67.1 nM.
As to `C[S@@](=N)(=O)C1(CN2CCn3c(ccc(C(=O)NCc4ccc(Cl)cc4)c3=O)C2=O)CC1` (single isomer, unassigned) [Example 96-1], the EC50 in assay [1] turned out to be 244 nM. Also, the IC50 amounted to 372 nM in assay [2] and 12.6 nM in assay [3].
For `N#Cc1ccc(CNC(=O)c2ccc3n(c2=O)CCN(CC2(S(=O)(=O)[C@H]4CC4(F)F)CC2)C3=O)cc1Cl` (single isomer, unassigned) [Example 102-1], in that order: 229 nM, 199 nM and 2 nM.
For `O=C(NCc1ccc(Cl)cc1)c1ccc2n(c1=O)CCN(CC1(N3CCOC3=O)CC1)C2=O` [Example 89-1, N-(4-chlorobenzyl)-1,6-dioxo-2-((1-(2-oxooxazolidin-3-yl)cyclopropyl)methyl)-2,3,4,6-tetrahydro-1H-pyrido[1,2-a]pyrazine-7-carboxamide], in assay [1], the concentration for a half-maximal effect (EC50) was 4900 nM. For the same molecule, the values for the IC50 in assay [2] and in assay [3] were 1260 nM and 79.3 nM, respectively.
For `O=C(NCc1ccc(Cl)cc1)c1ccc2n(c1=O)CCN(CCN1CCCS1(=O)=O)C2=O` [Example 64, N-(4-chlorobenzyl)-2-(2-(1,1-dioxidoisothiazolidin-2-yl)ethyl)-1,6-dioxo-2,3,4,6-tetrahydro-1H-pyrido[1,2-a]pyrazine-7-carboxamide], in that order: 96.1 nM, 181 nM and 33.6 nM.
The corresponding values for `O=C(NCc1ccc(Cl)cc1)c1cc(F)c2n(c1=O)CCN(CCN1CCCS1(=O)=O)C2=O` [Example 163] are 370 nM, 141 nM and 23.2 nM.
For `CN(CCN1CCn2c(c(C#N)cc(C(=O)NCc3ccc(Cl)cc3)c2=O)C1=O)S(C)(=O)=O` [Example 127], in that order: 19900 nM, 4790 nM and 545 nM.
In the case of `CCS(=O)(=O)C1(CN2CCn3c(ccc(C(=O)NCc4ccc(C#N)c(F)c4)c3=O)C2=O)CC1` [Example 34], the EC50 in assay [1] was 41.2 nM. In addition, the values for the IC50 in assay [2] and in assay [3] were 69.5 nM and 1.6 nM, respectively.
The corresponding values for `CN(C(=O)OC(C)(C)C)C1(CN2CCn3c(ccc(C(=O)NCc4ccc(Cl)cc4)c3=O)C2=O)CC1` [Example 206] are 10000 nM, 250000 nM and 1740 nM.
